Reference: patent US20110269799A1 (priority 2008, published 2011)
Read-outs that look alike come from different tables or passages of the source.

How the values were obtained:
[1] = system: AF patients; conditions: ACTIVE W; cited from earlier work
[2] = system: patients with atrial fibrillation at risk of stroke; conditions: warfarin INR 2.0-3.0
From the text: Median follow-up was 2.0 years and the primary outcome was stroke or systemic embolism.
Patients were recruited from 951 clinical centers in 44 countries. In brief, patients were eligible if they had atrial fibrillation documented on electrocardiogram at screening or within 6 months; and at least one of the following: prior stroke or transient ischemic attack; left ventricular ejection fraction less than 40%; New York Heart Association heart failure symptoms of Class 2 or greater within 6 months; age at least 75 years; or age at least 65 years with diabetes mellitus, hypertension or coronary artery disease.
The time in therapeutic range was calculated by the method of Rosendaal (Rosendaal F R, et al., A method to determine the optimal intensity of oral anticoagulant therapy, Thromb Haemost, 1993, 69:236-239), excluding INRs from the first week and after discontinuations. […] Concomitant use of aspirin (less than 100 mg/day) or other antiplatelet agents was allowed.
Liver function testing was performed monthly during the first year of follow-up.
The primary study outcome was stroke or systemic embolism. The primary safety outcome was major hemorrhage. Secondary outcomes were stroke, systemic embolism and death. Other outcomes were myocardial infarction, pulmonary embolism, transient ischemic attacks, and hospitalizations. The primary net benefit-risk outcome was the composite of stroke, systemic embolism, pulmonary embolism, myocardial infarction, death or major hemorrhage. Stroke was defined as sudden onset of focal neurological deficit consistent with the territory of a major cerebral artery and categorized as ischemic, hemorrhagic or unspecified. Hemorrhagic transformation of ischemic stroke was not considered as hemorrhagic stroke. Intracranial hemorrhage included hemorrhagic stroke and sub-dural or sub-arachnoid hemorrhage. Systemic embolism was an acute vascular occlusion of an extremity or organ documented by imaging, surgery or autopsy. Major bleeding was defined as a reduction in hemoglobin level of at least […] or transfusion of at least 2 units of blood or symptomatic bleeding in a critical area or organ. Life-threatening bleeding was a subset of major bleeding that included fatal bleeding, symptomatic intracranial bleeding, bleeding with hemoglobin decrease of more than […] or requiring transfusion of more than 4 units of blood or requiring inotropic agents or necessitating surgery. All other bleeding was considered minor.
All primary and secondary outcome events were blindly and doubly adjudicated. An international team of adjudicators reviewed documents in local languages after blinding; or documents were translated by a independent group and blinded centrally. All transient ischemic attacks were reviewed to ensure that strokes had not been missed. To detect possible unreported events, symptom questionnaires were regularly administered to patients, and adverse events and hospitalization reports were scrutinized for unreported primary or secondary outcomes.
If maximum of the two p-values was greater than 0.025, the minimum of the two p-values must be less than 0.0125, one-sided, to claim statistical significance. All analyses were based on intention-to-treat.

[3] = system: AF patients; conditions: SPORTIF III, cited from earlier work
[4] = system: patients who have nonvalvular atrial fibrillation; conditions: meta-analysis; cited from earlier work
[5] = system: AF patients; conditions: SPORTIF V, cited from earlier work

CC(=O)CC(c1ccccc1)c1c(O)c2ccccc2oc1=O (racemic) [Warfarin, 3-(α-acetonylbenzyl)-4-hydroxycoumarin]
Myocardial Infarction [1]: 0.6% (warfarin) | Stroke and systemic embolism (per 100 patient years) [1]: 1.5% (warfarin) | ALT or AST > 3xULN [2]: (2.1) % | ALT or AST > 3xULN with concurrent bilirubin > 2xULN [2]: (0.4) % | Adverse Event: Arthralgia [2]: (5.5) % | Adverse Event: Atrial fibrillation [2]: (5.4) % | Adverse Event: Back pain [2]: (5.5) % | Adverse Event: Chest pain [2]: (5.7) % | Adverse Event: Cough [2]: (5.8) % | Adverse Event: Diarrhea [2]: (5.5) % | Adverse Event: Dizziness [2]: (9.3) % | Adverse Event: Dyspepsia [2]: (1.4) % | Adverse Event: Dyspnoea [2]: (9.2) % | Adverse Event: Fatigue [2]: (5.9) % | Adverse Event: Nasopharyngitis [2]: (5.5) % | Adverse Event: Peripheral edema [2]: (7.6) % | Adverse Event: Upper respiratory tract infection [2]: (5.0) % | Adverse Event: Urinary tract infection [2]: (5.3) % | Major Bleeding, Life threatening, Rate [2]: 1.80 /100 Person Years | Major Bleeding, Other Major, Rate [2]: 1.80 /100 Person Years | Pulmonary embolism, Rate [2]: 0.09 /100 Person Years | Rate of discontinuation at 2.5 years [2]: 19% | Rate of hemorrhagic stroke [2]: 0.38 % per year | Rate of myocardial infarction [2]: 0.54 % per year | Rate of primary outcome, stroke or systemic embolism [2]: 1.70 % per year | Reason for discontinuation: Gastrointestinal bleeding [2]: (0.9) % | Reason for discontinuation: Gastrointestinal disorders (including pain, vomiting and diarrhea) [2]: (0.8) % | Reason for discontinuation: Outcome event [2]: (2.2) % | Reason for discontinuation: Patient decision [2]: (6.2) % | Reason for discontinuation: SAE [2]: (1.6) % | Stroke, systemic embolism, pulmonary embolism, myocardial infarction death or major bleed (net benefit), Rate [2]: 7.99 /100 Person Years | Study Drug Discontinuation at one year [2]: (10) % | Study Drug Discontinuation at two years [2]: (19) % | hepatobiliary disorders (AE) [2]: (2.2) % | hepatobiliary disorders (SAE) [2]: (0.4) % | Study Drug Discontinuation at one year ([2]; listed as warfarin): 10% | Myocardial Infarction [3]: 0.6% (warfarin) | Stroke and systemic embolism (per 100 patient years) ([3]; ximelagatran 36 mg b.i.d.): 2.3% (warfarin) | Reduction of the risk of stroke compared to control [4]: 64% | Myocardial Infarction [5]: 1.4% (warfarin) | Stroke and systemic embolism (per 100 patient years) ([5]; ximelagatran 36 mg b.i.d.): 1.2% (warfarin)
